The values that follow come from publication PMC10688098, “Intrinsic Solubility of Ionizable Compounds from pKa Shift” (ACS Omega, 2023).

What all share (type): physicochemical
Data set [1] can be described thus: Intrinsic pKa and intrinsic solubility from the model applied to literature titration data (Bjerrum plots).
Text: Since raw data formats were unavailable, we used WebPlotDigitizer to extract data from Bjerrum plots.[28],[29] Additionally, we used the equation for bound hydrogen ions per substance molecule to reverse engineer equivalent titrant added during the titration.[30] According to the model, any protonizable compound exists in three forms, the charged-dissolved form, the uncharged-dissolved form, and the uncharged-nondissolved (aggregated) form. We use the concept of 'the active concentration of an aggregate (precipitate)'. This concentration is mathematically equal to the amount of aggregate divided by volume of solution. This aggregate remains undissolved and is at an equilibrium (thermodynamic) concentration. The uncharged form of the ICPD47 compound exists in two forms, the dissolved form [ROH] and the aggregated form [ROH↓]. Furthermore, the total concentration of the ICPD47 compound, C, is equal to the sum of all three forms of the compound and includes the deprotonated concentration [RO^-]: [drawing 1] 1 Here we assume that the deprotonated form is highly soluble and there is no need to consider the aggregated form of the negatively charged deprotonated compound. […] A is inversely proportional to the intrinsic solubility, S, and is expressed and rearranged to [drawing 7] 7 [drawing 8] […] 12 cannot be expressed as a function pH = f([Hadd^+]), but may be solved numerically.
Data set [2] can be described thus: Chemical stability in acid and base. As to conditions: pH 2.0 to 12.0.
Data set [3] is described as follows: Intrinsic pKa and intrinsic solubility of ICPD47 from pKa shift (spectrophotometric and potentiometric titration, linked ionization-dissolution model). As to conditions: 25 °C, pKa shift model. On the procedure: (§1) The compound ICPD47 is sparingly soluble at near-neutral pH. Solubility is approximately equal to or below 100 μM. The solutions exceeding the solubility limit (0.25, 0.5, and 1.0 mM) were prepared by adding 1.5 equiv of NaOH (0.375 0.75, and 1.5 mM, respectively; 0.5 equiv excess), thus shifting the compound to its highly soluble deprotonated negatively charged form. The deprotonated solutions were titrated with […] more concentrated HCl (2.5 mM; 5.0 mM; and 10 mM) containing the same concentration of DMSO as in the analyte solution (2.0% in all solutions).
The pH titration was performed with a 250 μL syringe that was filled with the titrant (acid), and the needle was placed into the sample cell filled with 2.5 mL of analyzed solution. A pH microelectrode was also inserted into the same cell. […] The analyzed solution was mixed after each injection using a pipet. The pH was measured potentiometrically using a Mettler Toledo MP220 pH meter with a combined glass InLab Microelectrode. […] The pH measurements were recorded only when the pH measurement instability was less than 0.01 min^–1. […]
The ICPD47 compound solutions were prepared in the universal buffer of different pH values from 4.5 to 10.5 at every 0.5 pH unit. […] The absorbance was measured with an Agilent 8453 UV–vis spectrophotometer using the same 2.5 mL cuvette as for potentiometric titration. […]

Data set [4] can be described thus: Solubility at near-neutral pH. As to conditions: aqueous buffer. On the procedure:
as §1

In brackets after ≈: the same amount, converted by molar mass.

As to `CN(C)CCCOc1nn(Cc2ccccc2)c2ccccc12` [benzydamine], the pKa in data set [1] (model fit to literature titration data, value at infinite dilution) was found to be 9.6. Moreover, the solubility in data set [1] (water, thermodynamic from solid, model fit to literature titration data (ref 5, 22, 23)) is 270 µM (≈ 83.5 µg/mL).

On to `CCOc1ccc(-c2snnc2-c2cc(Cl)c(O)cc2O)cc1` [ICPD47], for which the “Chemical stability in acid and base” value in data set [2] is “chemically stable in acid and base”. In addition, the solubility in data set [3] (aqueous buffer, kinetic from dmso stock, aqueous universal buffer / titration with DMSO, read-out: Intrinsic solubility of the uncharged form) was roughly 75 µM; in data set [4] it was no more than 100 µM. In addition, the pKa in data set [3] (read-out: Intrinsic pKa (model estimate)) was 6.85.

A word on the pKa: it is the negative logarithm of the acid dissociation constant. In general, solubility refers to how much of the substance goes into solution per volume.
